# Laboratory results: US20180008569A1, “PROSTAGLANDIN TRANSPORTER INHIBITORS FOR INHIBITING OVULATION” (TEL HASHOMER MEDICAL RESEARCH INFRASTRUCTURE AND SERVICES …, priority 2015, published 2018)
# Marks after values point to notes of the source that are not given here.
# B1: amphiregulin (protein, UniProt P31955 100-248, looked up)
# Amphiregulin: VIKPKKNKTEGEKSTEKPKRKKKGGKNGKGRRNKKKKNPCTAKFQNFCIHGECRYIENLEVVTCNCHQDYFGERCGEKSMKTHSEDDKDLSKIAVVAVTIFVSAIILAAIGIGIVITVHLWKRYFREYEGETEERRRLRQENGTVHAIA
# Assays:
# PGT [1] = biological target: T1, PGT (Mus musculus, UniProt Q9EPT5); assay: Ovulated oocyte count in PMSG-primed/hCG-triggered immature female mice; format: in vivo; design: from tissue; host or cells: whole animal: PMSG-primed/hCG-triggered immature female mice (ovary)
# PGT [2] = biological target: PGT (Homo sapiens, UniProt Q92959); assay: PGE2 concentration in media of MGCs by enzyme immunoassay (EIA); format: cell-based; design: basal media concentration of PGE2: dose or concentration left out as unconfirmed
# Experimental: The concentration of PGE2 in the media was then measured by an enzyme immunoassay (EIA).
# PGT [3] = biological target: T1, PGT; assay: Ovarian morphology (histology) in superovulated mice
# PGT [4] = biological target: T1, PGT; assay: Oocyte maturation and cumulus expansion in vivo in mice; design: from tissue; host or cells: whole animal: PMSG-primed/hCG-triggered immature female mice (ovary)
# Excerpt: Ovulated COCs from hCG-treated mice were collected from the ampulla of the oviduct.
# [5] = tested on: PGE2 downstream target genes; assay: Ovarian expression of ovulatory cascade, PG receptor and PG metabolism genes by qPCR in PMSG-primed/hCG+DIDS-treated mice; format: in vivo
# Experimental: To characterize the ovulation-blocking effect of PGT at the molecular level, the effect of DIDS on the LH/CGR dependent activities was evaluated. Key representative genes of the ovulatory cascade were studied, including, oocyte maturation genes: amphiregulin (AREG), epiregulin (EREG), progesterone receptor (PR); cumulus expansion genes: tumor necrosis factor alpha-induced protein (TNFAIP6); follicular rupture related genes: disintegrin and metalloproteinase with thrombospondin motifs 1 (ADAMTS1), cathepsin L (CTSL); the ovulatory related genes: follicle stimulating hormone receptor (FSHR) and luteinizing hormone/chorionic gonadotropin receptor (LHCGR); and steroidogenesis related genes: steroidogenic acute regulatory protein (StAR) and cholesterol side cleavage chain (p450SCC). After total RNA was extracted from the ovaries of PMSG-primed/hCG+DIDS-treated mice and converted to cDNA, the expression of genes of interest was quantified by qPCR.
# [6] = Serum progesterone levels (corpus luteum function) in PMSG-primed/hCG-triggered mice; format: in vivo; settings: concurrent treatment with DIDS, 24 hours post-hCG
# Experimental: In order to assess corpus luteum function, serum progesterone levels were measured in PMSG-primed/hCG-triggered mice in the absence or presence of DIDS.
# PGT transcripts in MGCs = assay: PGT transcripts (qPCR) in cultured FSH-pretreated human mural granulosa cells; settings: for FSK-induced upregulation of PGT expression: then FSK 10 μM 24 hours; for hCG-induced upregulation of PGT expression: then hCG 1U/ml 24 hours
# Experimental: FSH-pretreated MGCs were then exposed to vehicle (PBS) or AREG for 24 hours. PGT was quantified by qPCR and normalized to/3-actin expression. Data represent the mean±SEM of three independent experiments.
# EP receptor = assay: Intracellular cAMP in MGCs after PGE2 pretreatment (EP receptor desensitization); format: cell-based, human; settings: pretreated with 10 μM PGE2 10 min, washed, 10 μM PGE2 additional 10 min
# Experimental: Inhibition of PGT activity or the provision of excess PGE2 results in the desensitization of the prostaglandin receptors […] and EP4 and thereby in a reduction in PGE2 signaling. An important second messenger for PGE2 is intracellular cAMP resulting from activation of either EP2 or EP4 receptor by PGE2. Thus, the hypothesis that excess PGE2 results in reduced PG signaling in human granulosa cells was tested. MGCs were incubated with 10 μM PGE2 for 10 min or pretreated with 10 μM PGE2 for 10 min, washed and then treated with 10 μM PGE2 for additional 10 min cAMP levels were measured in the cell lysate and was normalized to total protein content.
# EP4 receptor = EP4 receptor mRNA expression in FSH-pretreated MGCs; format: cell-based, human; settings: 10 μM PGE2, 24 hours
# [7] = tested on: whole ovarian PGT transcripts; assay: Whole ovarian PGT transcripts in PMSG-primed/hCG-triggered immature mouse superovulation model; format: in vivo; settings: PMSG for 48 hours
# [8] = Homo sapiens, read-out: increase in PGT transcripts (fold induction)
# T1 sequence (Q9EPT5 whole entry): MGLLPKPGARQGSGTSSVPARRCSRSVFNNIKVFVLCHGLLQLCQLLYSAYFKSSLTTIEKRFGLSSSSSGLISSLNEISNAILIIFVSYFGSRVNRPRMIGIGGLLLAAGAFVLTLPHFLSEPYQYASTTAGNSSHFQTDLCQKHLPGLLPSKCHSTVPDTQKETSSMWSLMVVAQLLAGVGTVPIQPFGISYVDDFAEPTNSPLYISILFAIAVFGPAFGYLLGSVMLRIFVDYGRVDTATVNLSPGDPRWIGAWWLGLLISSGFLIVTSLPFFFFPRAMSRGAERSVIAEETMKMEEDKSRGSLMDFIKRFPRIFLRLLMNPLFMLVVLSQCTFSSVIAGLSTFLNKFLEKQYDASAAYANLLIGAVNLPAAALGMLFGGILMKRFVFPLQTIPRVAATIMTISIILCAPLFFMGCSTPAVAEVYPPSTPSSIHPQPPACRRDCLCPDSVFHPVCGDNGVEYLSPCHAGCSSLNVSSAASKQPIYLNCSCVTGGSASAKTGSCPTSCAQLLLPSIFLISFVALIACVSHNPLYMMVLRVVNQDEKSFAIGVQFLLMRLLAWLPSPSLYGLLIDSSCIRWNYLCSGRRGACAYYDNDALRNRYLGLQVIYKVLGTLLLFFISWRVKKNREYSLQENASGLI
molecule,measurement,setting,value
"Cc1c(C2(c3cc(Br)c(O)c(Br)c3C)OS(=O)(=O)c3ccccc32)cc(Br)c(O)c1Br [BCG, Bromocresol Green]",ovulation,"PGT [1]; BCG at 500 and 350 mg/kg with hCG, 16 hours",complete blockade of ovulation
same,No. ova/ovulating mice (Mean ± SEM),"PGT [1]; hCG + BCG 250 mg/kg, 16 hours",58.4 ± 7.4
same,Range of oocytes in ovulating mice,"PGT [1]; hCG + BCG 250 mg/kg, 16 hours",12-61
same,No. ova/ovulating mice (Mean ± SEM),"PGT [1]; hCG + BCG 300 mg/kg, 16 hours",1.3*
same,Range of oocytes in ovulating mice,"PGT [1]; hCG + BCG 300 mg/kg, 16 hours",1-2
same,No. ova/ovulating mice (Mean ± SEM),"PGT [1]; hCG + BCG 350 mg/kg, 16 hours",0*
same,No. ova/ovulating mice (Mean ± SEM),"PGT [1]; hCG + BCG 500 mg/kg, 16 hours",0*
same,increase in the media concentration of PGE2 relative to controls,"PGT [2]; co-treatment hCG 1U/ml + BCG 50 mM, 24 hours",~3 fold
same,basal media concentration of PGE2,PGT [2]; no hCG,without effect
same,ovarian morphology,"PGT [3]; hCG+BCG 350 mg/kg, 16 hours after hCG",un-ruptured follicles with entrapped oocytes
"O=S(=O)(O)c1cc(N=C=S)ccc1C=Cc1ccc(N=C=S)cc1S(=O)(=O)O [DIDS, 4,4′-Diisothiocyanatostilbene-2,2′-disulfonic acid]",ovulated oocyte count,"PGT [1]; different concentrations of DIDS at time of hCG, 16 hours",dose-dependent decrements
same,No. of oocytes in ovulating mice,"PGT [1]; hCG + DIDS 5 mg/kg, 16 hours",7-77
same,No. ova/ovulating mice (Mean ± SEM),"PGT [1]; hCG + DIDS 5 mg/kg, 16 hours",53.5 ± 5.1
same,No. of oocytes in ovulating mice,"PGT [1]; hCG + DIDS 10 mg/kg, 16 hours",10-60
same,No. ova/ovulating mice (Mean ± SEM),"PGT [1]; hCG + DIDS 10 mg/kg, 16 hours",27.4 ± 6.8
same,No. of oocytes in ovulating mice,"PGT [1]; hCG + DIDS 20 mg/kg, 16 hours",1-51
same,No. ova/ovulating mice (Mean ± SEM),"PGT [1]; hCG + DIDS 20 mg/kg, 16 hours",22 ± 6.8
same,No. ova/ovulating mice (Mean ± SEM),"PGT [1]; hCG + DIDS 50 mg/kg, 16 hours",9
same,inhibition at 50 mg/kg,"PGT [1]; mouse, read-out: inhibition of ovulation",95.5%
same,cumulus state of COCs,"PGT [4]; DIDS, 24 hours following treatment with hCG",compact cumulus
same,oocytes at GV,PGT [4]; hCG + DIDS,100% (102/102)
same,oocytes at MI,PGT [4]; hCG + DIDS,0% (0/102)
same,oocytes at MII,PGT [4]; hCG + DIDS,0% (0/102)
same,cumulus state of COCs,PGT [4]; hCG and DIDS 50 mg/kg,compact cumulus
same,oocyte maturation stage,PGT [4]; hCG+DIDS-treated mice,immature and at the GV stage
same,cumuli of recovered cumulus-oocyte-complexes,PGT [4]; lower doses of DIDS,expanded normal-appearing cumuli
same,denuded oocytes from recovered cumulus-oocyte-complexes,PGT [4]; lower doses of DIDS,"morphologically normal, mature (M2)"
same,PGDH expression,[5]; addition of DIDS,not affected
same,downregulation of EP2 by hCG,[5]; addition of DIDS,abolished
same,reduction of FSHR mRNA in response to hCG,[5]; addition of DIDS,abolished
same,upregulation by hCG of COX-2,[5]; addition of DIDS,inhibited
same,upregulation by hCG of EP4,[5]; addition of DIDS,inhibited
same,upregulation by hCG of PGT,[5]; addition of DIDS,inhibited
same,expression of most of the ovulation related transcripts studied (except p450SCC and LHCGR),[5]; ovaries of PMSG-primed/hCG+DIDS-treated mice,profound inhibition
same,serum progesterone levels,[6],significant reduction
same,ovarian morphology,"PGT [3]; hCG+DIDS, 16 hours after hCG",numerous unruptured preovulatory follicles with entrapped oocytes
same,ovarian morphology,"PGT [3]; hCG+DIDS, forty hours after hCG injection",still contained entrapped oocytes in preovulatory follicles
"C=C[C@@]1(C)CC(=O)[C@]2(O)[C@@]3(C)[C@@H](O)CCC(C)(C)[C@@H]3[C@H](O)[C@H](OC(C)=O)[C@@]2(C)O1 [FSK, forskolin]",fold induction at 10 µM,PGT transcripts in MGCs; [8],25
O=S(=O)(NCCNC/C=C/c1ccc(Br)cc1)c1cccc2cnccc12 [H89],FSK-induced upregulation of PGT expression,PGT transcripts in MGCs; pretreatment 10 μM for 1 hour,largely inhibited
same,hCG-induced upregulation of PGT expression,PGT transcripts in MGCs; pretreatment 10 μM for 1 hour,largely inhibited
"CCCCC[C@H](O)/C=C/[C@H]1[C@H](O)CC(=O)[C@@H]1C/C=C\CCCC(=O)O [PGE2, Prostaglandin E2]",intracellular cAMP in response to further PGE2 stimulation,EP receptor,significantly reduced accumulation of intracellular cAMP
same,EP4 receptor mRNA expression compared to controls,EP4 receptor,significant downregulation
"CCCCCCCCCCCCCC(=O)O[C@@H]1[C@@H](C)[C@@]2(O)[C@@H](C=C(CO)C[C@]3(O)C(=O)C(C)=C[C@@H]23)[C@@H]2C(C)(C)[C@]12OC(C)=O [PMA, phorbol myristate acetate]",fold induction at 0.02 µM,PGT transcripts in MGCs; [8],11
N#CC(=C(/N)Sc1ccccc1N)/C(C#N)=C(\N)Sc1ccccc1N [U0126],FSK-induced upregulation of PGT expression,PGT transcripts in MGCs; pretreatment 10 μM for 1 hour,markedly inhibited
same,PMA-mediated upregulation of PGT transcripts,"PGT transcripts in MGCs; pretreatment 10 μM for 1 hour, then PMA 20 nM 24 hours",markedly inhibited
same,hCG-induced upregulation of PGT expression,PGT transcripts in MGCs; pretreatment 10 μM for 1 hour,effectively abolished
Pregnant mare serum gonadotropin [PMSG],level of PGT in the ovaries relative to control (saline),[7],2.3 folds
B1,induction of PGT expression,"PGT transcripts in MGCs; FSH-pretreated MGCs exposed to AREG for 24 hours, vs vehicle (PBS)",3 fold
